20 compounds from US4369120A, “Refrigeration liquid with leak indicator and process of using same” (priority 1981, dated 1983) can be followed below.

Series [1] can be described thus: Sealed tube test of stability of dyes in refrigerant/refrigeration oil with metal coupons. Format: physicochemical. As to conditions: for Stability, Mean Life: Table I, sealed tube data in R-12 at 350° F.; for stability in the sealed tube test (in words): 350° F., Table I dyes. The protocol:
By reference to Table I below it can be appreciated that such ortho substitution has a remarkably beneficial effect on the stability of the dyes in the accelerated sealed tube test used for evaluation. The first three dyes listed, embodying the principles of this invention, routinely withstand in excess of twenty days in the sealed tube test at 350° F. (176.7° C.), equivalent to many years of normal use in a refrigeration system.
The sealed tube test serves as a method of evaluating in an accelerated manner interactions of materials found in a refrigeration system.
Glass tubes and all metal test coupons are scrupulously cleaned. Test refrigerants are distilled to minimize moisture contamination. Moisture is removed from the refrigeration test oil "Suniso" 3GS by subjecting the oil to a vacuum with slight stirring and heating. Ratios of refrigerant/refrigerant oil range from 1:1 to 1:2 by weight.
Refrigerant oil and representative metal coupons of copper #10AWG wire, Swedish valve stock steel, and aluminum metal sheet are placed in a glass tube along with the subject test dye material (0.25-1.0% wt/wt) dissolved in the refrigerant oil. Like samples without the subject dye are analyzed as controls.
The tube and its contents are chilled in a liquid nitrogen bath while the refrigerant is condensed into the tube via a calibrated manometer. The tube is sealed under a vacuum of at least 0.1 torr.
Glass tubes and contents are subjected to uniform heating in a bored aluminum block placed in a temperature-programmed oven.
The oven temperatures used vary according to the test refrigerant, as indicated:
The test is run for one of the following time periods: 5, 14, 21, 30 or 60 days.
The tube contents may be evaluated by several methods:
of these methods, the visual examination is the most rapid and the only qualitative method. Any color change in the subject dye coloration is noted when compared to a control sample.
The quantitative methods involve analysis for decomposition products of chloride as hydrochloric acid or organic products by gas chromatography, infrared spectroscopy, or mass spectroscopy. However, visual inspection and gas chromatography are widely used, and they were selected as standardization procedures for evaluation of sealed tube contents.
R-12 is chemically one of the more reactive refrigerants; thus, short term tests with refrigeration liquids containing this refrigerant admixed with a mineral oil yield the most rapid results. R-22 and R-502 are also used but the decomposition products are more difficult to analyze by gas chromatography. Ultimately the test material must pass interactions involving any of these refrigerants. The visual method can be used empirically on a pass-fail basis. As verified experimentally, visual results are considered as valid as instrumental methods.

Series [2] can be described thus: Solubility of dyes in refrigeration oils. As to conditions: Table I, Suniso 3GS refrigeration oil. The protocol:
Manufacturers of refrigeration equipment generally demand that any refrigeration liquid satisfactorily pass such a sealed tube test before they approve the liquid for use in their equipment. In addition, the solubility of the various dyes in oil and in refrigerant were determined.
Solubility of various dyes in various refrigeration oils was carefully determined according to the following standardized procedure. An excess of the subject dye was added to a given weight (e.g., 100 g) of refrigerant oil. The mixture was stirred for one-half hour with mild heating, whereupon it was cooled to room temperature (about 21° C.) and transferred to a centrifuge tube. The mixture was centrifuged approximately 15 minutes at 1000 rpm. A sample of the supernatant liquid was decanted (1.00 g±0.01 g) and diluted to 100 ml volume with methylene chloride. Aliquot portions were taken and read against the principal absorption peaks by visible light spectroscopy. Wt/wt percentage concentrations were then calculated from proper standard curves.

Structures are written as SMILES. Bounds are passed on as bounds.

On to `O=C1c2ccccc2C(=O)c2c(Nc3ccc(C4CCCCC4)cc3)ccc(Nc3ccc(C4CCCCC4)cc3)c21` [Dye No. 5-5, 1,4-Bis(4-cyclohexylanilino)], for which the “Stability, Mean Life” value in series [1] was 9.7 days. Besides, the “Oil Sol. In 3GS” value in series [2] was 0.1%.

Regarding `CCCCOc1ccc(Nc2ccc(Nc3ccc(OCCCC)cc3)c3c2C(=O)c2ccccc2C3=O)cc1` [Dye No. 8-2, 1,4-Bis(4-n-butoxyanilino)], in series [1], the “Stability, Mean Life” value is 8.6 days. Moreover, in series [2], the “Oil Sol. In 3GS” value stood at 0.02%.

With `CCOc1ccc(Nc2ccc(Nc3ccc(OCC)cc3)c3c2C(=O)c2ccccc2C3=O)cc1` [Dye No. 7-3, 1,4-Bis(4-ethoxyanilino)], in series [1], the “Stability, Mean Life” value is on record as 8.5 days. The “Oil Sol. In 3GS” value in series [2] was less than 1.0%.

For `CC(Nc1ccc(NC(C)c2ccccc2)c2c1C(=O)c1ccccc1C2=O)c1ccccc1` (stereo not drawn) [Dye No. 11-17, 1,4-Bis(α-methylbenzylamino)], the “Stability, Mean Life” value in series [1] came out at 3.5 days. Besides, the “Oil Sol. In 3GS” value in series [2] amounted to 1.0%.

As for `O=C1c2ccccc2C(=O)c2c(NCc3ccccc3)ccc(NCc3ccccc3)c21` [Dye No. 10-19, 1,4-Bis(benzylamino)], in series [1], the “Stability, Mean Life” value was determined as 4.5 days. Further, the “Oil Sol. In 3GS” value in series [2] was less than 0.25%.

Regarding `CCCCCCCCNc1ccc(NCCCCCCCC)c2c1C(=O)c1ccccc1C2=O` [Dye No. 13-27, 1,4-Bis(n-octylamino)], the “Stability, Mean Life” value in series [1] is reported as 4.4 days. For the same compound, the “Oil Sol. In 3GS” value in series [2] is 0.5%.

As to `CCN(c1ccccc1)c1ccc(N(CC)c2ccccc2)c2c1C(=O)c1ccccc1C2=O` [Dye No. 17-14, 1,4-Bis(N--ethylanilino)], in series [1], the “stability in the sealed tube test (in words)” value (“stability … (in words)” below) is recorded as “very unstable” and the “Stability, Mean Life” value amounted to 4.5 days. For the same compound, in series [2], the “Oil Sol. In 3GS” value turned out to be 1.0%.

Regarding `CN(c1ccccc1)c1ccc(N(C)c2ccccc2)c2c1C(=O)c1ccccc1C2=O` [Dye No. 16-10, 1,4-Bis(N--methylanilino)], in series [1], the “stability … (in words)” value is given as “very unstable” and the “Stability, Mean Life” value worked out at 7.0 days. Moreover, the “Oil Sol. In 3GS” value in series [2] is reported as 0.1%.

Consider `CCCCc1ccc(Nc2ccc(Nc3ccc(C)cc3)c3c2C(=O)c2ccccc2C3=O)cc1` [Dye No. 21-11, 1-(4-n-butylanilino)-4-(p-toluidino)], for which, in series [1], the “Stability, Mean Life” value is given as 7.7 days. Further, the “Oil Sol. In 3GS” value in series [2] turned out to be 0.1%.

Turning to `CCCCc1ccc(Nc2cc(C)c(Nc3ccc(CCCC)cc3)c3c2C(=O)c2ccccc2C3=O)cc1` [Dye No. 22-16, 1,4-Bis(4-n-butylanilino)-2-methyl], in series [1], the “stability … (in words)” value is on record as “very unstable” and the “Stability, Mean Life” value turned out to be 3.0 days. Moreover, in series [2], the “Oil Sol. In 3GS” value is listed as 1.0%.

In the case of `O=C1c2ccccc2C(=O)c2c(Nc3ccccc3C(F)(F)F)ccc(Nc3ccccc3C(F)(F)F)c21` [Dye No. 23-24, 1,4-Bis(2-trifluoro-methylanilino)], in series [1], the “stability … (in words)” value is “very unstable” and the “Stability, Mean Life” value is reported as 6.5 days. In series [2], the “Oil Sol. In 3GS” value amounted to 0.5%.

Regarding `CCCCOc1ccc(N(C)c2ccc(N(C)c3ccc(OCCCC)cc3)c3c2C(=O)c2ccccc2C3=O)cc1` [Dye No. 20-12, 1,4-Bis(N--methyl-4-n-butoxyanilino)], in series [1], the “stability … (in words)” value is given as “very unstable” and the “Stability, Mean Life” value is 4.0 days. Further, the “Oil Sol. In 3GS” value in series [2] worked out at 0.1%.

Regarding `CC(C)(C)c1ccc(Nc2ccc(Nc3ccc(C(C)(C)C)cc3)c3c2C(=O)c2ccccc2C3=O)cc1` [Dye No. 6-21, 1,4-Bis(4-t-butylanilino)], in series [1], the “Stability, Mean Life” value is on record as 8.7 days. Further, in series [2], the “Oil Sol. In 3GS” value was 1.0%.

`CCCCCCCCCCCCNc1ccc(NCCCCCCCCCCCC)c2c1C(=O)c1ccccc1C2=O` [Dye No. 14-32, 1,4-Bis(n-dodecylamino)]: the “Stability, Mean Life” value in series [1] is on record as 2.3 days. Also, the “Oil Sol. In 3GS” value in series [2] is listed as 0.5%.

For the compound `CCCCc1ccc(Nc2ccc(Nc3ccc(CCCC)cc3)c3c2C(=O)c2ccccc2C3=O)cc1` [Dye No. 4-1, 1,4-Bis(4-n-butylanilino)], the “Stability, Mean Life” value in series [1] amounted to 9.5 days. The “Oil Sol. In 3GS” value in series [2] was less than 1.0%.

On to `CCOc1ccc(N(C)c2ccc(N(C)c3ccc(OCC)cc3)c3c2C(=O)c2ccccc2C3=O)cc1` [Dye No. 19-9, 1,4-Bis(N--methyl-4-ethoxyanilino)], for which, in series [1], the “stability … (in words)” value is “very unstable” and the “Stability, Mean Life” value is 6.0 days. For the same compound, the “Oil Sol. In 3GS” value in series [2] is listed as 0.1%.

Take `CCCCc1ccc(N(C)c2ccc(N(C)c3ccc(CCCC)cc3)c3c2C(=O)c2ccccc2C3=O)cc1` [Dye No. 18-6, 1,4-Bis(N-methyl-4-n-butylanilino)anthraquinone]: in series [1], the “stability … (in words)” value was “very unstable” and the “Stability, Mean Life” value worked out at 4.3 days. The “Oil Sol. In 3GS” value in series [2] came out at 0.1%.

For `O=C1c2ccccc2C(=O)c2c(NC(c3ccccc3)c3ccccc3)ccc(NC(c3ccccc3)c3ccccc3)c21` [Dye No. 12-20, 1,4-Bis(diphenylmethylamino)], the “Stability, Mean Life” value in series [1] is recorded as 2.0 days. In series [2], the “Oil Sol. In 3GS” value is less than 0.05%.

For the compound `CC(C)(C)CNc1ccc(NCC(C)(C)C)c2c1C(=O)c1ccccc1C2=O` [Dye No. 15-13, 1,4-Bis(neopentylamino)], in series [1], the “stability … (in words)” value is reported as “very unstable” and the “Stability, Mean Life” value was 3.4 days. In addition, in series [2], the “Oil Sol. In 3GS” value is recorded as less than 1.0%.

Regarding `O=C1c2ccccc2C(=O)c2c(NCCc3ccccc3)ccc(NCCc3ccccc3)c21` [Dye No. 9-8, 1,4-Bis(β-phenethylamino)], the “Stability, Mean Life” value in series [1] turned out to be 4.4 days. In series [2], the “Oil Sol. In 3GS” value is listed as 0.1%.
